Assays:
[1] = tested on: Morningglory; assay: Upland pot test, pre-/post-emergence spray, visual rating; assay type: in vivo, morningglory (IPOSP); settings: 2 weeks after spray, 0-10 scale (10=completely killed)
From the text: (§1) To a rectangular plastic pot having a surface area of 300 cm^2, mixed soils including blend bed soil (Boonong, Horticultural Bed Soil No. 3) and sandy loam soil were filled (mixing ratio, 1:1). Seeds of the eight different types of weeds including gramineous weed such as barnyardgrass, large crabgrass, green foxtail, fall panicum, and broadleaf weed such as common cocklebur, velvetleaf, Indian joint-vetch, and morningglory were sown. To the other pot containing the same soil mixture, seeds of the five different types of crops including corn, soybean, cotton, wheat and rice were sown. Pots were kept in a greenhouse of which temperature was maintained at 25˜30° C. (day) or 15˜25° C. (night), and regularly watered.
(§2) After fourteen days and when the crops and the weeds reached their three-leaf stage, the other set of a crop pot and a weed pot were prepared by the same method as described above. Then, “test substance” was sprayed thereto. In this case, spray treatment to the plants after they have grown for two weeks corresponded to post-emergence treatment while spray treatment to the seeds right after the sowing corresponded to pre-emergence treatment. Spray was carried out by using a track sprayer (R&D Sprayer, USA) equipped with a Teejet 8002 nozzle (Spraying Systems Co., USA). Spray volume was adjusted to 300 L/ha. The spray solution was prepared by dissolving the “test substance” in acetone and adding the same volume of 0.2% (v/v) Tween 20 aqueous solution. Dosage of the test substance was 500, 250, 125, 62.5 or 31.3 g/ha. Two weeks after the spray of the test substance, efficacy and phytotoxic effect to the crops and the weeds were visually measured based on a 0 to 10 scale (0: no efficacy, 10: completely killed).

[2] = tested on: Zoysiagrass; assay: Turfgrass safety test (sod mat pots), visual phytotoxicity; assay type: in vivo, Zoysia japonica; settings: in vivo
From the text: Commercially available sod mats of zoysiagrass and bentgrass, Kentucky bluegrass, and perennial ryegrass were purchased. After cutting each turf sod mat in a size of 10 cm×20 cm, it was transplanted to a rectangular plastic pot having a surface area of 300 cm^2 wherein mixed soils including blend of a bed soil (Boonong, Horticultural Nursery Soil No. 3) and sandy loam soil were filled (mixing ratio, 1:1). After transplanting, the grass was mowed (0.5˜1.0 cm in height) once a week, and kept for one month in a greenhouse maintained at 25˜30° C. (day) or 15˜25° C. (night), then the test substance of the present invention was applied at dosage of 4, 2, 1 and 0.5 kg/ha. As a reference, Dithiopyr (32% EC, manufactured by Dongbu Hannong Chemical Company, KOREA) was applied at the recommended rate of 0.48 kg/ha, or twice or quadruple amount thereof, i.e., 0.96 and 1.92 kg/ha, respectively. Spray was made by a track sprayer equipped with a Teejet 8002 nozzle. Spray volume was adjusted to 2,000 L/ha, which was a typical value for an Asian (Korea and Japan) golf course. The spray solution was prepared by dissolving the “test substance” in acetone and adding the same volume of 0.2% (v/v) Tween 20 aqueous solution. Two, four or six weeks after the spray of the test substance, phytotoxicity to the turfgrass were visually evaluated based on 0 to 10 scale (0: no phytotoxic effect, 10: completely killed). The test was conducted in a randomized block design with a three replicates and the results were summarized in the following Table 2 is an average value of the replicates.

[3] = tested on: Large crabgrass; assay: Herbicidal activity at different growth stages, fresh weight suppression; assay type: in vivo; settings: .12 kg/ha, fresh weight two weeks after treatment
[4] = tested on: Cocklebur; assay: Upland pot test, pre-/post-emergence spray, visual rating; assay type: in vivo, common cocklebur (XANST); settings: 2 weeks after spray, 0-10 scale (10=completely killed)
From the text: as §1, §2

[5] = tested on: Large crabgrass; assay: Herbicidal activity at different growth stages, fresh weight suppression; assay type: in vivo; settings: for Suppression ratio relative to the biomass of the untreated group: Large crabgrass 1 leaf / Suppression ratio relative to the biomass of the untreated group: Large crabgrass 2 leaf / Suppression ratio relative to the biomass of the untreated group: Large crabgrass 3 leaf / Suppression ratio relative to the biomass of the untreated group: Large crabgrass 4 leaf / Suppression ratio relative to the biomass of the untreated group: Large crabgrass PRE: fresh weight two weeks after treatment
Method: To a cup pot having a surface area of 100 cm^2 wherein mixed soils including blend bed soil (Boonong, Horticultural Bed Soil No. 3) and sandy loam soil were filled (mixing ratio, 1:1), seeds of large crabgrass and annual bluegrass were sown consecutively at an one week interval. The pots were moistened by sub-irrigation, and kept in a greenhouse maintained at 25˜30° C. (day) or 15˜25° C. (night). The said weeds were grown to various growth stages from pre-emergence to the four-leaf stage. Then, they were applied with the test substance of the present invention at dosage of 2, 1, 0.5, or 0.25 kg/ha. As a reference herbicide, Dithiopyr (32% EC, manufactured by Dongbu Hannong Chemical Company), was applied at 0.96, 0.48, or 0.24 kg/ha. Spray volume was adjusted to 2,000 L/ha. The method to spray of the test substance and prepare spray solutions were the same as described above. The reference herbicide was used after it was diluted with 0.2% (v/v) Tween 20 aqueous solution. The test was conducted in a randomized block design with three replicates. Two weeks after the treatment, plant parts remained above the pot soil surface were cut and the fresh weight was weighed. Results are given by a suppression ratio relative to the biomass that was obtained from the untreated group (see, Table 3).

[6] = post-emergence foliar spray at three leaf stage, 31.2 g/ha
[7] = post-emergence foliar spray at three leaf stage, 62.5 g/ha
[8] = post-emergence foliar spray at three leaf stage, 125 g/ha
[9] = post-emergence foliar spray at three leaf stage, 250 g/ha
[10] = post-emergence foliar spray at three leaf stage, 500 g/ha
[11] = pre-emergence soil treatment, 31.2 g/ha
[12] = pre-emergence soil treatment, 62.5 g/ha
[13] = pre-emergence soil treatment, 125 g/ha
[14] = pre-emergence soil treatment, 250 g/ha
[15] = pre-emergence soil treatment, 500 g/ha

How did the “Visual measurement: Broadleaf weed, Morningglory” value (“Visual measurement … Morningglory” for short) [1, 6] turn out when `Cc1ccsc1C1=NOC(C)(COCc2c(F)cccc2F)C1` (stereo not shown) [test substance, 5-(2,6-difluorobenzyl)oxymethyl-5-methyl-3-(4-methylthiophen-5-yl)-1,2-isoxazoline] was run?
The value was 0.

And the “Visual measurement … Morningglory” value [1, 7]?
The value was 0.

What about the “Visual measurement … Morningglory” value [1, 8] of the same compound?
The value was 0.

What about the “Visual measurement … Morningglory” value [1, 9] of the same compound?
The value was 1.

And the “Visual measurement … Morningglory” value [1, 10]?
Its value is 3.

What about the “Visual measurement … Morningglory” value [1, 11] of the same compound?
Its value is 0.

And the “Visual measurement … Morningglory” value [1, 12]?
Its value is 0.

What about the “Visual measurement … Morningglory” value [1, 13] of the same compound?
The value was 1.

What about the “Visual measurement … Morningglory” value [1, 14] of the same compound?
The value was 2.

And the “Visual measurement … Morningglory” value [1, 15]?
The value was 2.

And the “Phytotoxic effect, visual assessment: Zoysiagrass Week 6” value (“Phytotoxic effect … Zoysiagrass Week 6” below) ([2]; Zoysia japonica (zoysiagrass), 6 weeks)?
Its value is 0.0.

What about the “Phytotoxic effect, visual assessment: Zoysiagrass Week 2” value [2] of the same compound?
Its value is 2.7.

And the “Phytotoxic effect, visual assessment: Zoysiagrass Week 4” value [2]?
Its value is 1.7.

What about the “Phytotoxic effect … Zoysiagrass Week 6” value [2] of the same compound?
Its value is 1.0.

And the “Phytotoxic effect, visual assessment: Zoysiagrass Week 2” value ([2]; zoysiagrass (Zoysia japonica), 2 weeks)?
Its value is 0.0.

And the “Phytotoxic effect, visual assessment: Zoysiagrass Week 4” value ([2]; zoysiagrass (Zoysia japonica), 4 weeks)?
The value was 0.0.

And the “Phytotoxic effect … Zoysiagrass Week 6” value ([2]; zoysiagrass (Zoysia japonica), 6 weeks)?
The value was 0.0.

And the “Suppression ratio relative to the biomass of the untreated group: Large crabgrass 1 leaf” value [3]?
Its value is 95%.

What about the “Suppression ratio relative to the biomass of the untreated group: Large crabgrass 3 leaf” value [3] of the same compound?
The value was 23%.

What about the “Suppression ratio relative to the biomass of the untreated group: Large crabgrass PRE” value [3] of the same compound?
Its value is 84%.

And the “Visual measurement: Broadleaf weed, Cocklebur” value (from here on “Visual measurement … Cocklebur”) [4, 6]?
Its value is 0.

What about the “Visual measurement … Cocklebur” value [4, 7] of the same compound?
Its value is 0.

And the “Visual measurement … Cocklebur” value [4, 8]?
Its value is 1.

And the “Visual measurement … Cocklebur” value [4, 9]?
The value was 3.

What about the “Visual measurement … Cocklebur” value [4, 10] of the same compound?
Its value is 7.

And the “Visual measurement … Cocklebur” value [4, 11]?
Its value is 0.

What about the “Visual measurement … Cocklebur” value [4, 12] of the same compound?
Its value is 0.

And the “Visual measurement … Cocklebur” value [4, 13]?
Its value is 0.

And the “Visual measurement … Cocklebur” value [4, 14]?
Its value is 0.

What about the “Visual measurement … Cocklebur” value [4, 15] of the same compound?
Its value is 0.

What about the “Suppression ratio relative to the biomass of the untreated group: Large crabgrass 1 leaf” value ([5]; 1 kg/ha) of the same compound?
Its value is 100%.

And the “Suppression ratio relative to the biomass of the untreated group: Large crabgrass 2 leaf” value ([5]; 1 kg/ha)?
The value was 98%.

And the “Suppression ratio relative to the biomass of the untreated group: Large crabgrass 3 leaf” value ([5]; 1 kg/ha)?
Its value is 94%.

And the “Suppression ratio relative to the biomass of the untreated group: Large crabgrass 4 leaf” value ([5]; 1 kg/ha)?
Its value is 70%.

What about the “Suppression ratio relative to the biomass of the untreated group: Large crabgrass PRE” value ([5]; 1 kg/ha) of the same compound?
Its value is 100%.

And the “Suppression ratio relative to the biomass of the untreated group: Large crabgrass 1 leaf” value ([5]; 2 kg/ha)?
Its value is 100%.

And the “Suppression ratio relative to the biomass of the untreated group: Large crabgrass 2 leaf” value ([5]; 2 kg/ha)?
Its value is 98%.

And the “Suppression ratio relative to the biomass of the untreated group: Large crabgrass 3 leaf” value ([5]; 2 kg/ha)?
The value was 97%.

And the “Suppression ratio relative to the biomass of the untreated group: Large crabgrass 4 leaf” value ([5]; 2 kg/ha)?
The value was 76%.

What about the “Suppression ratio relative to the biomass of the untreated group: Large crabgrass PRE” value ([5]; 2 kg/ha) of the same compound?
The value was 100%.

And the “Suppression of large crabgrass” value ([5]; 3-leaf stage, 1 kg/ha or more)?
Its value is at least 90%.

And the “Suppression ratio relative to the biomass of the untreated group: Large crabgrass 2 leaf” value ([5]; .12 kg/ha)?
The value was 45%.

And the “Suppression ratio relative to the biomass of the untreated group: Large crabgrass 4 leaf” value ([5]; .12 kg/ha)?
Its value is 16%.

And the “Suppression ratio relative to the biomass of the untreated group: Large crabgrass 1 leaf” value ([5]; .25 kg/ha)?
The value was 100%.

And the “Suppression ratio relative to the biomass of the untreated group: Large crabgrass 2 leaf” value ([5]; .25 kg/ha)?
The value was 81%.

What about the “Suppression ratio relative to the biomass of the untreated group: Large crabgrass 3 leaf” value ([5]; .25 kg/ha) of the same compound?
The value was 72%.

And the “Suppression ratio relative to the biomass of the untreated group: Large crabgrass 4 leaf” value ([5]; .25 kg/ha)?
The value was 33%.

And the “Suppression ratio relative to the biomass of the untreated group: Large crabgrass PRE” value ([5]; .25 kg/ha)?
Its value is 100%.

And the “Suppression ratio relative to the biomass of the untreated group: Large crabgrass 1 leaf” value ([5]; .5 kg/ha)?
Its value is 100%.

What about the “Suppression ratio relative to the biomass of the untreated group: Large crabgrass 2 leaf” value ([5]; .5 kg/ha) of the same compound?
The value was 93%.

What about the “Suppression ratio relative to the biomass of the untreated group: Large crabgrass 3 leaf” value ([5]; .5 kg/ha) of the same compound?
The value was 86%.

And the “Suppression ratio relative to the biomass of the untreated group: Large crabgrass 4 leaf” value ([5]; .5 kg/ha)?
The value was 65%.

And the “Suppression ratio relative to the biomass of the untreated group: Large crabgrass PRE” value ([5]; .5 kg/ha)?
The value was 100%.

And the “Suppression of large crabgrass” value ([5]; PRE to 2-leaf stage, 0.5 kg/ha or above)?
The value was at least 90%.

And the “Control of large crabgrass (in words)” value ([5]; over four-leaf stage)?
The value was “suppressed but were not completely controlled”.

Source: patent US8445409B2, “Use of 5-benzyloxymethyl-1,2-isoxazoline derivatives as a herbicide” (Moghu Research Center Ltd., priority 2007, dated 2013)
